Measured values taken from ChEMBL document CHEMBL5346922, “Discovery of phenylcarbamoyl xanthone derivatives as potent neuroprotective agents for treating ischemic stroke” (Eur J Med Chem, 2023).
pEC50: −log10 of the molar value.

Legend:
[1] = tested on: PC-12; test: Neuroprotective activity in rat PC12 cells assessed as protection against glutamate induced excitotoxicity at 20 uM pretreated with glutamate for 24 hrs followed by compound addition and measured after 24 hrs; type: functional
[2] = tested on: PC-12; test: Neuroprotective activity against H2O2-induced oxidative damage in rat PC12 cells assessed as increase in cell survival at 20 uM pretreated with H2O2 for 24 hrs followed by compound addition and measured after 24 hrs; type: functional; conditions: read-out: Survival
[3] = tested on: PC-12; test: Neuroprotective activity against glutamate induced excitotoxicity in rat PC12 cells assessed as cell survival at 20 uM pretreated with glutamate for 24 hrs followed by compound addition and measured after 24 hrs; type: functional; conditions: read-out: Survival
[4] = tested on: PC-12; test: Neuroprotective activity against H2O2-induced oxidative damage in rat PC12 cells at 20 uM pretreated with H2O2 for 24 hrs followed by compound addition and measured after 24 hrs; type: functional
[5] = tested on: PC-12; test: Neuroprotective activity against H2O2-induced oxidative damage in rat PC12 cells pretreated with H2O2 for 24 hrs followed by compound addition and measured after 24 hrs; type: functional, cell-based
[6] = tested on: PC-12; test: Neuroprotective activity against glutamate induced excitotoxicity in rat PC12 cells pretreated with glutamate for 24 hrs followed by compound addition and measured after 24 hrs; type: functional, cell-based

Row | SMILES | Activity [1] | viability at 20 µM [2] | viability at 20 µM [3] | Activity [4] | pEC50 [5] | pEC50 [6]
1 | COc1c(OC(=O)N(C)c2ccccc2C)cc2oc3cc4c(c(OC)c3c(=O)c2c1CC=C(C)C)C=CC(C)(C)O4 | 31.44% | 69.3% | 52.3% | 31.11% | – | –
2 | CC1=NN(c2ccccc2)C(=O)C1 [EDARAVONE] | – | 80.5% | – | 56.36% | – | –
3 | COc1cccc(N(C)C(=O)Oc2cc3oc4cc5c(c(O)c4c(=O)c3c(CC=C(C)C)c2OC)C=CC(C)(C)O5)c1 | 31.84% | 59.6% | 52.6% | 9.57% | – | –
4 | COc1c(OC(=O)N(C)c2cccc(Cl)c2)cc2oc3cc4c(c(O)c3c(=O)c2c1CC=C(C)C)C=CC(C)(C)O4 | 1.57% | 58.2% | 31.6% | 6.23% | – | –
5 | COc1c(OC(=O)N(CC2CC2)c2cccc(F)c2)cc2oc3cc4c(c(O)c3c(=O)c2c1CC=C(C)C)C=CC(C)(C)O4 | 55.65% | 74.4% | 69.2% | 42.67% | 4.61 | 4.76
6 | COc1c(OC(=O)N(CC2CC2)c2ccc(C)cc2)cc2oc3cc4c(c(O)c3c(=O)c2c1CC=C(C)C)C=CC(C)(C)O4 | 48.26% | 69% | 64% | 30.57% | – | –
7 | COc1c(OC(=O)N(C)c2ccccc2)cc2oc3cc4c(c(OC)c3c(=O)c2c1CC=C(C)C)C=CC(C)(C)O4 | 46.32% | 70.9% | 62.7% | 34.72% | – | –
8 | COc1c(OC(=O)N(C)c2ccccc2)cc2oc3cc4c(c(OCc5ccc(F)cc5)c3c(=O)c2c1CC=C(C)C)C=CC(C)(C)O4 | 0.01% | 65.5% | 31% | 22.59% | – | –
9 | COc1c(OC(=O)N(C)c2cccc(C)c2)cc2oc3cc4c(c(OC)c3c(=O)c2c1CC=C(C)C)C=CC(C)(C)O4 | 38.81% | 62.3% | 57.5% | 15.51% | – | –
10 | CCc1cccc(N(C)C(=O)Oc2cc3oc4cc5c(c(O)c4c(=O)c3c(CC=C(C)C)c2OC)C=CC(C)(C)O5)c1 | 37.14% | 60.7% | 56.3% | 11.9% | – | –
11 | COc1c(OC(=O)N(CC2CC2)c2cccc(Cl)c2)cc2oc3cc4c(c(O)c3c(=O)c2c1CC=C(C)C)C=CC(C)(C)O4 | 46.68% | 75.9% | 62.9% | 45.94% | 4.58 | –
12 | CCc1ccccc1N(C)C(=O)Oc1cc2oc3cc4c(c(O)c3c(=O)c2c(CC=C(C)C)c1OC)C=CC(C)(C)O4 | 35.36% | 63.1% | 55.1% | 17.35% | – | –
13 | COc1c(OC(=O)N(C)c2ccccc2F)cc2oc3cc4c(c(O)c3c(=O)c2c1CC=C(C)C)C=CC(C)(C)O4 | 43.78% | 70.9% | 60.9% | 34.69% | – | –
14 | COc1c(OC(=O)N(C)c2ccccc2C)cc2oc3cc4c(c(O)c3c(=O)c2c1CC=C(C)C)C=CC(C)(C)O4 | 36.26% | 66.8% | 55.7% | 25.55% | – | –
15 | COc1c(OC(=O)N(C)c2ccc(C(C)(C)C)cc2)cc2oc3cc4c(c(O)c3c(=O)c2c1CC=C(C)C)C=CC(C)(C)O4 | 12.14% | 63.6% | 38.9% | 18.35% | – | –
16 | COc1c(OC(=O)N(C)c2ccc(C)cc2)cc2oc3cc4c(c(OC)c3c(=O)c2c1CC=C(C)C)C=CC(C)(C)O4 | 26.81% | 70.2% | 49.1% | 33.3% | – | –
17 | COc1c(OC(=O)N(C)c2ccccc2)cc2oc3cc4c(c(OCc5ccc(C(F)(F)F)cc5)c3c(=O)c2c1CC=C(C)C)C=CC(C)(C)O4 | 6.46% | 60.9% | 35% | 12.35% | – | –
18 | CCN(C(=O)Oc1cc2oc3cc4c(c(O)c3c(=O)c2c(CC=C(C)C)c1OC)C=CC(C)(C)O4)c1ccccc1 | 38.13% | 65.1% | 57% | 21.74% | – | –
19 | COc1c(OC(=O)N(C)c2cccc(Br)c2)cc2oc3cc4c(c(O)c3c(=O)c2c1CC=C(C)C)C=CC(C)(C)O4 | 3.74% | 57.7% | 33.1% | 5.11% | – | –
20 | COc1c(OC(=O)N(C)c2cccc(C)c2)cc2oc3cc4c(c(O)c3c(=O)c2c1CC=C(C)C)C=CC(C)(C)O4 | 39.04% | 66.8% | 57.6% | 25.7% | – | –
21 | COc1c(OC(=O)N(C)c2ccc(C)cc2)cc2oc3cc4c(c(O)c3c(=O)c2c1CC=C(C)C)C=CC(C)(C)O4 | 29.08% | 63% | 50.7% | 17.03% | – | –
22 | COc1ccc(N(C)C(=O)Oc2cc3oc4cc5c(c(O)c4c(=O)c3c(CC=C(C)C)c2OC)C=CC(C)(C)O5)cc1 | 26.88% | 62.5% | 49.2% | 16% | – | –
23 | COc1ccccc1N(C)C(=O)Oc1cc2oc3cc4c(c(O)c3c(=O)c2c(CC=C(C)C)c1OC)C=CC(C)(C)O4 | 25.79% | 61.6% | 48.4% | 13.94% | – | –
24 | COc1c(OC(=O)N(CC2CC2)c2ccccc2C)cc2oc3cc4c(c(O)c3c(=O)c2c1CC=C(C)C)C=CC(C)(C)O4 | 0% | 60.6% | 30.5% | 11.7% | – | –
25 | COc1c(OC(=O)N(CC2CC2)c2cccc(C)c2)cc2oc3cc4c(c(O)c3c(=O)c2c1CC=C(C)C)C=CC(C)(C)O4 | 35.08% | 73% | 54.9% | 39.49% | – | –
26 | COc1c(OC(=O)N(C)c2cccc(F)c2)cc2oc3cc4c(c(O)c3c(=O)c2c1CC=C(C)C)C=CC(C)(C)O4 | 53.62% | 60.9% | 67.8% | 12.46% | – | 4.71
27 | CCc1ccc(N(C)C(=O)Oc2cc3oc4cc5c(c(O)c4c(=O)c3c(CC=C(C)C)c2OC)C=CC(C)(C)O5)cc1 | 29.26% | 65.5% | 50.8% | 22.79% | – | –
28 | COc1c(OC(=O)N(C)c2cccc(Cl)c2)cc2oc3cc4c(c(OC)c3c(=O)c2c1CC=C(C)C)C=CC(C)(C)O4 | 7.91% | 68% | 36% | 28.17% | – | –
29 | CCOc1cccc(N(C)C(=O)Oc2cc3oc4cc5c(c(O)c4c(=O)c3c(CC=C(C)C)c2OC)C=CC(C)(C)O5)c1 | 18.96% | 59.1% | 43.7% | 8.38% | – | –
30 | COc1c(OC(=O)N(CC2CC2)c2cccc(Br)c2)cc2oc3cc4c(c(O)c3c(=O)c2c1CC=C(C)C)C=CC(C)(C)O4 | 23.09% | 63.2% | 46.5% | 17.48% | – | –
